According to PMC12169614, “Exploring Long Arm Amide-Linked Side Chains in the Design of Antifungal Azole Inhibitors of Sterol 14α-Demethylase (CYP51)” (Journal of Medicinal Chemistry, 2025):

Columns and labels:
Y2651 OE CYP51 F5 RaCPR = test: MIC80 determination, strain Y2651; format: cell-based, S. cerevisiae; conditions: Saccharomyces cerevisiae
Procedure: Cells were seeded at an OD600 nm of 0.005 (1.5 × 10^4 CFU), and the plates were incubated at 30 °C with shaking at 200 rpm for 48 h for S. cerevisiae strains and 24 h for C. albicans . Cell growth was assessed by measuring the OD600 nm using a Synergy 2 multimode plate reader (BioTek Instruments, VT, USA). Each MIC80 was determined using triplicate measurements for pools of 4 clones of each strain in three separate experiments.

CaCYP51 Y132F = CaCYP51 Y132F (Candida albicans, UniProt P10613, Y132F); test: Reconstituted CYP51 activity assay, Y132F; format: biochemical, C. albicans; conditions: 1 μM CaCyp51, 50 μM lanosterol; duplicate, mean ± SD
Procedure: The reconstituted CYP51 assay previously described contained 1 μM CaCyp51, 2 μM Homo sapiens cytochrome P450 reductase and 50 μM lanosterol in a final volume of 500 μL. After the addition of azole in DMSO (2.5 μL), reactions were incubated at 37 °C for 10 min prior to initiation by the addition of 100 μL 20 mM β-NADPH-Na4. Sterol substrates and products were extracted with ethyl acetate, derivatized with N,O-bis(trimethylsilyl)-trifluoroacetamide (BSTFA)–trimethylchlorosilane (TMCS) (99:1) in the presence of anhydrous pyridine, and analyzed by GC/MS as described previously. IC50 determinations were performed in duplicate. Nonlinear regression of inhibitor concentration vs normalized response was calculated by GraphPad Prism 10.4.0 for Windows (GraphPad Software, Boston, Massachusetts, USA, www.graphpad.com).

CaCYP51 Y132F, sequence (P10613 whole entry Y132F): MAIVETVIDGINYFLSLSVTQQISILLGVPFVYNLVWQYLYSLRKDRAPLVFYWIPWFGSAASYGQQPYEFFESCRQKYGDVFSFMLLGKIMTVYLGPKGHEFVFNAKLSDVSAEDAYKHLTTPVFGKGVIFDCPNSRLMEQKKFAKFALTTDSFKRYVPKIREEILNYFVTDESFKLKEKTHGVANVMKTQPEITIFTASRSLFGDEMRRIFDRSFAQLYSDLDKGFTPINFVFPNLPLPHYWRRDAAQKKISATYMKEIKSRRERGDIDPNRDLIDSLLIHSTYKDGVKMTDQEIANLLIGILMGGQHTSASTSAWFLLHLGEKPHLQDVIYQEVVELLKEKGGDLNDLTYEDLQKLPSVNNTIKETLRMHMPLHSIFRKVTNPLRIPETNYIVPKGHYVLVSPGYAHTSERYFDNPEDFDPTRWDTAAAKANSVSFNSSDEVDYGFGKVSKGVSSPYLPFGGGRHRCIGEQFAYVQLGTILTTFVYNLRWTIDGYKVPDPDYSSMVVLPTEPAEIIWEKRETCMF

Structure (SMILES): O=C(NCC(O)(Cn1cncn1)c1ccc(F)cc1F)c1ccc(-c2ccc(OC(F)(F)F)cc2)cc1 (centres unmarked) [Compound 22, N-(2-(2,4-Difluorophenyl)-2-hydroxy-3-(1H-1,2,4-triazol-1-yl)propyl)-4’-(trifluoromethoxy)-[1,1’-biphenyl]-4-carboxamide]
- MIC80 (Y2651 OE CYP51 F5 RaCPR): 1.36 ± 0.907 µM
- IC50 (CaCYP51 Y132F): 1240 ± 37.9 nM
